Data on 30 compounds can be found in PubChem BioAssay (NCI).

SMILES strings stand for the structures.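 1) Cells in 96-well plates. 2) Compound, 48 h, 5 concentrations. 3) Linear interpolation between surrounding doses. 4) Unreached endpoint = highest concentration. TGI marks complete inhibition of growth.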 *1 amine or outer side, *2 acyl side, *3 side chain or, on linkers, in order; H or OH if unused. Where a SMILES comes first, the peptide text is derived from it. [ ]: non-standard residue; d: D form. The star is where a group is joined. ξ: configuration not given here. NMeY = CN[C@@H](Cc1ccc(O)cc1)C(=O)O; Ethylenediamine = C(CN[*:2])N[*:1]; ξNMeL = CNC(CC(C)C)C(=O)O; Cbz = O=C(OCc1ccccc1)*; Lac = C[C@H](O)C(=O)O; ξA = CC(N)C(=O)O

What all share (experiment): NCI anticancer screen, dose series, 48 h
Experiment [1] concerns MOLT-4 leukemia.
Experiment [2] has as its system HOP-92 NSCLC.
Experiment [3] deals with DU-145 prostate.

On to `Cc1c(O)c(OC2OC(CO)C(O)C(O)C2O)cc2c1C=C[C@@H]1[C@@]2(C)C(=O)C[C@]2(C)[C@@H]([C@@](C)(O)C(O)/C=C/C(C)(C)O)[C@H](O)C[C@@]12C` (stereo partly drawn), for which the TGI in experiment [1], in experiment [2] and in experiment [3] was over 100 µM each time.

`S=C=Nc1ccc(CSc2nc3ccccc3[nH]2)cc1`: the values for the TGI in experiment [1], in experiment [2] and in experiment [3] were 55.1 µM, 32 µM and 29.6 µM, respectively.

Regarding `c1cc(-c2ccc(-c3nc4ccc(C5=NCCN5)cc4s3)s2)ccc1C1=NCCN1`, the TGI in experiment [1] stood at 0.879 µM; in experiment [2], 1.08 µM; in experiment [3] it was 0.677 µM.

`CN(C)CCNCc1ccc2c(-c3ccccc3)nc3cc(Cl)c(Cl)cc3n12`: the TGI in experiment [1] turned out to be 21.6 µM; in experiment [2], 28.3 µM; in experiment [3] it was 23.3 µM.

As to `O=C1c2c(Br)sc(Br)c2[C@@H](Cl)[C@H]1Cl`, the TGI in experiment [1] was over 100 µM; in experiment [2], 42.5 µM; in experiment [3], 35.9 µM.

Take `O=[N+]([O-])c1ccc(-n2nc3ccc4c(no[n+]4[O-])c3[n+]2[O-])c([N+](=O)[O-])c1`: the values for the TGI in experiment [1], in experiment [2] and in experiment [3] were 5.81 µM, 8.02 µM and 12.6 µM, respectively.

In the case of `O=c1cc(-c2ccccc2)[nH]c2ccc(S)cc12`, the TGI was 39.8 µM in experiment [1], 91.5 µM in experiment [2] and over 100 µM in experiment [3].

As to `c1ccc2c(c1)nn1c3ccc4nonc4c3[n-][n+]21`, the TGI in experiment [1], in experiment [2] and in experiment [3] was over 100 µM throughout.

With `CCOC(=O)/C(=C\NC(C)(C)C)c1nc2ccccc2[nH]1`, the TGI in experiment [2] is 56.8 µM; in experiment [3], over 100 µM.

Take `COc1ccc(C2C(C#N)=C(S)N(C3OC(COC(C)=O)C(OC(C)=O)C(OC(C)=O)C3OC(C)=O)C(C)=C2C(C)=O)cc1` (stereo not drawn): the TGI in experiment [1], in experiment [2] and in experiment [3] was over 100 µM throughout.

Consider `COc1cc2oc(=O)cc(C)c2c(OC)c1O`, for which the TGI in experiment [1] and in experiment [3] was over 100 µM throughout.

Consider `CCCCN(CCCC)CCC(O)c1cc(-c2ccc(C(F)(F)F)cc2)nc(-c2ccc(C(F)(F)F)cc2)c1` (stereo not drawn), for which the TGI in experiment [1], in experiment [2] and in experiment [3] was over 100 µM each time.

Take `O=[N+]([O-])C1=Cc2cc(Cl)ccc2OC1c1cccc2ccccc12` (stereo not drawn): the TGI in experiment [1] turned out to be 0.817 µM; in experiment [2] it was 3 µM; in experiment [3], 4.7 µM.

Take `COC1=N[C@H](C(C)C)C(OC)=N[C@H]1Cc1ccc(C[C@@H]2N=C(OC)[C@@H](C(C)C)N=C2OC)s1`: the TGI in experiment [1] was 41 µM; in experiment [2], over 100 µM; in experiment [3], over 100 µM.

In the case of `O=C1C[C@H](COCc2ccccc2)NC(=O)C[C@H](COCc2ccccc2)NC(=O)C[C@H](COCc2ccccc2)N1`, the TGI is over 100 µM in experiment [1], 35.4 µM in experiment [2] and over 100 µM in experiment [3].

In the case of `C[C@@H]1[C@H](O)CC2=C(CC[C@@H](O)C2(C)C)[C@@]1(CO)CCc1ccoc1`, the TGI in experiment [1] and in experiment [2] was over 50 µM in each case.

`N#Cc1c(C#N)c(-c2ccccc2)n(Cc2ccccc2)c1N`: the TGI in experiment [1] and in experiment [3] was over 100 µM in each case.

For `COc1ccc(/C=C2\C[C@H]3[C@@H]4CC=C5C[C@@H](OC(C)=O)CC[C@]5(C)[C@H]4CC[C@]3(C)\C2=N\O)cc1OC`, the TGI in experiment [1], in experiment [2] and in experiment [3] was over 100 µM each time.

Consider `COC(=O)C1CCC(=O)N1CN(C(C)=O)c1cc(OC)ccc1OC` (stereo not drawn), for which the TGI in experiment [1], in experiment [2] and in experiment [3] was over 100 µM in each case.

On to `CC1C2CCC3C(O)C2(CC(O)C2(O)C1CC(O)C2(C)C)CC3(C)O` (stereo not drawn), for which the TGI in experiment [2] and in experiment [3] was over 100 µM in each case.

As for `CC(C)=NNc1snnc1C(N)=O`, the TGI in experiment [1] and in experiment [3] was over 100 µM throughout.

Turning to `Cc1c(O)c(OC2OC(CO)C(O)C(O)C2O)cc2c1CC[C@@H]1C2(C)C(=O)C[C@]2(C)[C@@H]([C@@](C)(O)C3CCC(C)(C)O3)[C@H](O)C[C@@]12C` (stereo partly drawn), the TGI in experiment [1], in experiment [2] and in experiment [3] was over 100 µM throughout.

As to `COC1CC(OC2CCC3(C)C(=CCC4C3C(OC(C)=O)C(OC(=O)CC(C)C)C3(C)C(C(C)=O)CCC43O)C2)OC(C)C1OC1CC(OC)C(OC2CC(OC)C(OC3OC(C)C(O)C(OC)C3O)C(C)O2)C(C)O1` (stereo not drawn), the TGI in experiment [1] is 45.6 µM; in experiment [2], 57.6 µM; in experiment [3], over 100 µM.

Turning to `O=c1[nH]nc(-c2ccccc2)n1/N=C/c1ccco1`, the TGI in experiment [1], in experiment [2] and in experiment [3] was over 100 µM throughout.

Consider `Cc1ccc(/C=C/C(=N/NC(=O)N/N=C(/C=C/c2ccc(C)cc2)C(C)C)C(C)C)cc1`, for which the TGI in experiment [1], in experiment [2] and in experiment [3] was over 10 µM in each case.

In the case of `CN(C)CCCNc1ccc2nnn3c4ccc(OC(=O)c5ccccc5)cc4c(=O)c1c23`, the TGI in experiment [1] worked out at 9.41 µM; in experiment [2], 39.2 µM; in experiment [3], 22.9 µM.

On to `Cc1cc(S(=O)(=O)Nc2nnc3c4ccccc4cnn23)c(S)cc1Cl`, for which the TGI in experiment [1], in experiment [2] and in experiment [3] was over 100 µM each time.

Regarding `Cc1c2n(c3ccccc13)S(=O)(=O)c1ccccc1-2`, the values for the TGI in experiment [1], in experiment [2] and in experiment [3] were over 100 µM, 73.6 µM and over 100 µM, respectively.

`COc1ccc(C[C@@H](C(=O)NCCNC(=O)C(CC(C)C)N(C)C(=O)[C@@H]2CCCN2C(=O)[C@H](C)O)N(C)C(=O)[C@@H]2CCCN2C(=O)[C@H](CC(C)C)NC(=O)C(C)NC(=O)OCc2ccccc2)cc1` (stereo partly drawn) (Cbz-[ξA]LP[NMeY](Me)-{Ethylenediamine-ξNMeL-Pro-Lac}): the TGI in experiment [1], in experiment [2] and in experiment [3] was over 100 µM in each case.

`CC(=O)OC1OC(c2ccoc2)C[C@@]12C1CCC3O[C@]3(C)[C@]1(C)[C@H](OC(C)=O)[C@H](OC(C)=O)[C@H]2C` (stereo partly drawn): the TGI in experiment [1] and in experiment [2] was over 37.5 µM in each case.
